Results as given in US10865207B2, “Compounds for imaging Tau protein aggregates” (AC IMMUNE S.A., priority 2016, dated 2020).

Key:
MAO A = target: T1, MAO A (Mus musculus, UniProt Q64133); experiment: MAO A 18F-FEH competition assay in mouse brain homogenate; format: binding; settings: for low MAO A binding (grade): Table 2, IC50 in mouse brain homogenate
T1 construct: from tissue; host or cells: whole mouse brain homogenate
T1 sequence (Q64133 1-526): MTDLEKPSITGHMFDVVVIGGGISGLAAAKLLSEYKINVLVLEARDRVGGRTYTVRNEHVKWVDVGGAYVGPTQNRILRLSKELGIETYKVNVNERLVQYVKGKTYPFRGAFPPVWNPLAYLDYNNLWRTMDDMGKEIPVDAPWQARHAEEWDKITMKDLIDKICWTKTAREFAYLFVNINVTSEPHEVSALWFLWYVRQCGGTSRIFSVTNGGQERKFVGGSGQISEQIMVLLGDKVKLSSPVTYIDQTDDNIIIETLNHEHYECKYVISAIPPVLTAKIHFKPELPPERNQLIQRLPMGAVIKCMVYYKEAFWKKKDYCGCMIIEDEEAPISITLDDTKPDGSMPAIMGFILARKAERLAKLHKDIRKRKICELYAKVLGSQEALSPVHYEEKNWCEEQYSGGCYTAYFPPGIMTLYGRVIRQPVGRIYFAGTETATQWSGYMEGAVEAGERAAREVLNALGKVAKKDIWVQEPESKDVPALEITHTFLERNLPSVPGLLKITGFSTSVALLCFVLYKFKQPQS

Tau = Tau (Homo sapiens, UniProt P10636); experiment: Competition binding to Tau in human AD brain homogenate with 18F-labeled Tau binder; settings: for high Tau binding (grade): Table 2, fluorine-19 derivatives; for binding affinity for Tau (in words): IC50 determined in AD brain homogenate; on high Tau binding (grade): key: −: poor; ∘: moderate; +: good; ++: very good; +++: excellent
Experimental: 20 μg of human Alzheimer disease brain homogenate was incubated with a dilution series of each test compound (1000 to 0.06 nM) in the presence of 800 Bq of ^18F-labeled Tau binder. The samples were shaken at 110 rpm for 45 min at 37° C. Samples were then filtered through GF/B 96 well filter plates and washed twice with 300 μL assay buffer (PBS containing 0.1% BSA and 2% DMSO). Thereafter, filter plates were sealed and a Fuji Film Imaging Plate (BAS-SR2025) was placed on top. The imaging plate was analyzed after overnight exposition using a Fuji Film BAS-5000. Non-specific signal was determined with samples containing ^18F-labeled Tau-reference binder in the presence of assay buffer without brain substrate and competitor. […] The unblocked ^18F-labeled Tau-binder signal was defined as total binding. IC50 values were calculated by Prism V6 (GraphPad) setting total binding to 100%.

[1] = PK studies in healthy mice (dynamic PET); format: in vivo, NMRI mice; set-up: Good brain uptake (grade) / Mouse PK Uptake (grade): key: −: poor; ∘: moderate; +: good; ++: very good; +++: excellent; settings: for Mouse PK De-fluorination (grade) / Mouse PK Uptake (grade) / Mouse PK Washout (grade): Table 2; for bone uptake in shoulder joint at 60 min (de-fluorination) / peak uptake in brain (tracer uptake in healthy mice after iv injection) / ratio of uptake peak/30 min (washout from healthy brain): healthy mice; for bone uptake in shoulder joint at 60 min (de-fluorination): after iv injection; for peak uptake in brain (tracer uptake in healthy mice after iv injection): PET; for ratio of uptake peak/30 min (washout from healthy brain): Table 1: ratio of uptake at 2 min and 30 min; on Good brain uptake (grade): key: −: poor; ∘: moderate; +: good; ++: very good; +++: excellent; on Mouse PK De-fluorination (grade): key: −: poor; ∘: moderate; +: good; ++: very good; +++: excellent; on Mouse PK Washout (grade): key: −: poor; ∘: moderate; +: good; ++: very good; +++: excellent
Experimental: NMRI mice (weight range 25-35 g) were injected intravenously with the ^18F-labeled compounds. Up to 150 μL of 1×PBS solution with 10%-15% EtOH or dilution medium ([…]) containing the ^18F-labeled compound (2-10 MBq) were injected. Anesthesia with isoflurane was induced before injection of the tracer and maintained during the image acquisition period. PET scans were performed using a SIEMENS INVEON small animal PET/CT scanner (Siemens, Knoxville, Tenn.). PET acquisition was started immediately before the radioactive dose was injected into the animal through the tail vein. Images were generated as dynamic scans for 60 minutes.
The peak uptake in the brain was set to 100% and washout curves were generated to evaluate the clearance of the activity from the normal brain (FIG. 2).

Chain of Tau (P10636 623-708 limits assumed): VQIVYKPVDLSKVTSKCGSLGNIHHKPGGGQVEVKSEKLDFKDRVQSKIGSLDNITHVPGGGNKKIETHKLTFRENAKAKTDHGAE

| Structure (SMILES) | selectivity over MAO A (in words) (MAO A) | high Tau binding (grade) (Tau) | low MAO A binding (grade) (MAO A) | Mouse PK De-fluorination (grade) [1] | Mouse PK Uptake (grade) [1] | Mouse PK Washout (grade) [1] | bone uptake in shoulder joint at 60 min (de-fluorination) [1] | peak uptake in brain (tracer uptake in healthy mice after iv injection) [1] | ratio of uptake peak/30 min (washout from healthy brain) [1] | binding affinity for Tau (in words) (Tau) | Good brain uptake (grade) ([1]; Table 1) | Low retention in healthy brain (grade) ([1]; Table 1) | Fast washout from healthy brain (grade) ([1]; Table 1) | Low or minor de-fluorination (grade) ([1]; Table 1) | De-fluorination in mice (in words) ([1]; mouse, in vivo) |
| --- | --- | --- | --- | --- | --- | --- | --- | --- | --- | --- | --- | --- | --- | --- | --- |
| Fc1ccc(-c2ccc3c(n2)[nH]c2ccncc23)nc1 [Comparative Example 8 (F-8)] | Inferior | +++ |  |  |  |  |  |  |  |  |  |  |  |  |  |
| Fc1cncc(-c2ccc3c(n2)[nH]c2ccncc23)c1 [Comparative Example 5 (F-5)] |  | ++ | +++ | + | ++ | + | (2.9% ID/g) | (5.3% ID/g) | (9.6) | inferior |  |  |  |  |  |
| Fc1ccc(-c2ccc3c(n2)[nH]c2ccncc23)cn1 [Compound F-2] | Inferior | +++ | + | − | ++ | ++ | (6.2% ID/g) | (5.7% ID/g) | (10.9) |  |  |  |  |  |  |
| Fc1cccc(-c2ccc3c(n2)[nH]c2ccncc23)n1 [Comparative Example 7 (F-7)] | Inferior | ++ | + | − | +++ |  | (11.1% ID/g) | (8.5% ID/g) | (7.0) | inferior |  |  |  |  |  |
| Fc1cccnc1-c1ccc2c(n1)[nH]c1ccncc12 [Comparative Example 10 (F-10)] |  | − | +++ | − |  | − | (6.2% ID/g) | (2.1% ID/g) | (3.6) | poor |  |  |  |  |  |
| Fc1ccnc(-c2ccc3c(n2)[nH]c2ccncc23)c1 [Comparative Example 9 (F-9)] |  | ++ | +++ |  |  |  |  |  |  | inferior |  |  |  |  |  |

Next, values leading:

| selectivity over MAO A (in words) (MAO A) | high Tau binding (grade) (Tau) | low MAO A binding (grade) (MAO A) | Mouse PK De-fluorination (grade) [1] | Mouse PK Uptake (grade) [1] | Mouse PK Washout (grade) [1] | bone uptake in shoulder joint at 60 min (de-fluorination) [1] | peak uptake in brain (tracer uptake in healthy mice after iv injection) [1] | ratio of uptake peak/30 min (washout from healthy brain) [1] | binding affinity for Tau (in words) (Tau) | Good brain uptake (grade) ([1]; Table 1) | Low retention in healthy brain (grade) ([1]; Table 1) | Fast washout from healthy brain (grade) ([1]; Table 1) | Low or minor de-fluorination (grade) ([1]; Table 1) | De-fluorination in mice (in words) ([1]; mouse, in vivo) | Structure (SMILES) |
| --- | --- | --- | --- | --- | --- | --- | --- | --- | --- | --- | --- | --- | --- | --- | --- |
|  |  |  |  |  |  |  |  |  |  | ++ | − |  |  |  | [18F]c1ccc(-c2ccc3c(c2)[nH]c2ccncc23)cn1 [Compound ^18F-1] |
|  | − | +++ |  | +++ | ++ | (4.8% ID/g) | (8.2% ID/g) | (14.5) | poor |  |  |  |  |  | Fc1ccncc1-c1ccc2c(n1)[nH]c1ccncc12 [Comparative Example 6 (F-6)] |
|  |  |  |  |  |  |  |  |  |  | ++ |  | + | − | De-fluorination in mice was found | [18F]c1ccc(-c2ccc3c(n2)[nH]c2ccncc23)cn1 [Compound ^18F-2] |
